Laboratory results from publication PMC7699381, “Rare-Earth Metal Complexes of the Antibacterial Drug Oxolinic Acid: Synthesis, Characterization, DNA/Protein Binding and Cytotoxicity Studies” (Molecules, 2020).

Experiments:
[1] = test system: CT-DNA (double-stranded calf-thymus DNA); experiment: DNA binding by UV-Vis spectra (titration with CT-DNA); settings: 20 µM compound, 0–40 µM DNA, Tris-HCl pH 7.4, room temperature
[2] = test system: LoVo (human colon adenocarcinoma); experiment: MTS cytotoxicity assay, LoVo cells; format: cell-based; settings: 48 h of incubation
Experimental: (§1) For the evaluation of the cytotoxic effects of the complexes and ligand two human cancer cell lines were used, namely MDA-MB 231 (human breast adenocarcinoma) and LoVo (human colon adenocarcinoma); a normal cell line, human umbilical vein endothelial cells (HUVEC), was used as a reference. […] After 24 h and 48 h, respectively, cell viability was evaluated through MTS assay (data shown in Figures S16–S18) and the IC50 values were calculated (Table 5). The cytotoxicity assay is based on the ability of metabolically active cells to reduce MTS, a yellow tetrazolium salt, to the colored formazan, soluble in the culture medium; the concentration of formazan can be spectrophotometrically determined. […] PES is a cationic dye with high chemical stability that binds to MTS and forms a stable solution. […] The reduced MTS to formazan was spectrophotometrically measured at λ = 492 nm. The test was run on two cancer cell lines, LoVo and MDA-MB 231, and on a normal cell line, HUVEC. […] Cell viability data were obtained in triplicate (n = 3) and expressed as mean values ± standard deviations (SD). […] All assays were performed in 96-well microtiter plates with flat bottom (Falcon), using CellTiter 96 Aqueous One Solution Cell Proliferation Assay (Promega), an MTS-based colorimetric assay. The formazan was spectrophotometrically measured using the Tecan GENios Spectrophotometer.

[3] = biological target: T1, Human serum albumin (HSA) (Homo sapiens, UniProt P02768); experiment: Fluorescence quenching of human serum albumin; settings: for Ka (association binding constant), HSA / n (Hill Coefficient), HSA / n (Number of Binding Sites), HSA / Ksv (Stern-Volmer constant), HSA / Kq (bimolecular quenching constant), HSA / fa (fraction of fluorophore accessible to the quencher), HSA: 298 K; for Ksv (Stern-Volmer constant), HSA: 0–8 µM compound, pH 7.4; for Kq (bimolecular quenching constant), HSA: from KSV = Kq τ0; for fa (fraction of fluorophore accessible to the quencher), HSA: modified Stern-Volmer
EB-DNA system (CT-DNA) = experiment: Competitive binding assay with ethidium bromide (EB) through fluorescence spectroscopy; parameters: species or system calf; settings: 10 µM CT-DNA, 2 µM EB; for Ksv (Stern-Volmer quenching constant, EB-DNA system): 0–40 µM compound, λex 500 nm; for K50 (EB Displacement Assay): concentration corresponding to 50% binding
Source text: The manner of binding to the DNA macromolecule can be investigated through competitive binding studies with ethidium bromide (3,8-diamino-5-ethyl-6-phenylphenanthridinium bromide), a fluorescent dye; due to its aromatic ring, it can intercalate between two adjacent base pairs in the DNA structure and form a complex which emits fluorescent light; displacing EB results in a quenching effect. The Stern-Volmer constant (KSV) and the dissociation constant (K50) have been calculated from the resulting data.
Competitive binding studies were carried out on a Jasco FP 6500 fluorometer at room temperature, using quartz cells of 1 cm path-length. The fluorescence spectra were recorded on 1.6 mL samples containing 10 µM CT-DNA and 2 µM EB in the absence and presence of increasing amounts (0–40 µM with an increment of 5 µM) of complexes and free ligands, respectively, after being kept in contact for 10 min at room temperature, under continuous stirring and in the dark. The excitation wavelength used was 500 nm and the spectra was recorded in the 520–800 nm range. Two control samples were used, the first one containing DMSO, DNA and EB and the second one just the complex.
Data from the assay can be interpreted using the classical Stern-Volmer equation (Equation (3)):(3) F0/F=1+ KSV·[Q] where F0 and F are the fluorescence intensities of the EB-DNA samples in the absence and presence of the tested compounds and [Q] is the concentration of the compound; KSV is the Stern-Volmer constant and can be calculated from the plot of F0/F vs. [Q] as the slope.
The ratio of binding relative to the control sample exposed only to DMSO was plotted against the logarithm of concentration. The data points were fitted using the modified Hill function with offset (Origin®) (Equation (4)):(4) y=A1+(A2−A1)×x^n/K50^n+x^n where y is the ratio of binding (F/F0) and x is the concentration, A1 is the minimum of y values, A2 is the maximum of y values, K50 is the concentration corresponding to 50% binding and n is the Hill coefficient.

[4] = test system: MDA-MB 231 (human breast adenocarcinoma); experiment: MTS cytotoxicity assay, MDA-MB 231 cells; format: cell-based; settings: 48 h of incubation
Experimental: as §1

[5] = test system: HUVEC (normal human umbilical vein endothelial cells); experiment: MTS cytotoxicity assay, HUVEC normal cells; format: cell-based; settings: 48 h of incubation
Experimental: as §1

Apo-transferrin (apo-Tf) = biological target: T2, Apo-transferrin (apo-Tf) (Homo sapiens, UniProt P02787); experiment: Fluorescence quenching of apo-transferrin; format: binding; settings: for Ka (association binding constant), apo-Tf / n (Hill Coefficient), apo-Tf / n (Number of Binding Sites), apo-Tf / Ksv (Stern-Volmer constant), apo-Tf / Kq (bimolecular quenching constant), apo-Tf / fa (fraction of fluorophore accessible to the quencher), apo-Tf / Kd: 298 K; for Ksv (Stern-Volmer constant), apo-Tf: 0–8 µM compound, pH 7.4; for Kq (bimolecular quenching constant), apo-Tf: from KSV = Kq τ0; for fa (fraction of fluorophore accessible to the quencher), apo-Tf: modified Stern-Volmer; for Kd: read-out: Kd, apo-Tf
T2 construct: purchased Sigma Aldrich Chemical Co. (Schnelldorf, Germany)

[6] = biological target: T1, Human serum albumin (HSA)

T1 sequence (P02768 25-609): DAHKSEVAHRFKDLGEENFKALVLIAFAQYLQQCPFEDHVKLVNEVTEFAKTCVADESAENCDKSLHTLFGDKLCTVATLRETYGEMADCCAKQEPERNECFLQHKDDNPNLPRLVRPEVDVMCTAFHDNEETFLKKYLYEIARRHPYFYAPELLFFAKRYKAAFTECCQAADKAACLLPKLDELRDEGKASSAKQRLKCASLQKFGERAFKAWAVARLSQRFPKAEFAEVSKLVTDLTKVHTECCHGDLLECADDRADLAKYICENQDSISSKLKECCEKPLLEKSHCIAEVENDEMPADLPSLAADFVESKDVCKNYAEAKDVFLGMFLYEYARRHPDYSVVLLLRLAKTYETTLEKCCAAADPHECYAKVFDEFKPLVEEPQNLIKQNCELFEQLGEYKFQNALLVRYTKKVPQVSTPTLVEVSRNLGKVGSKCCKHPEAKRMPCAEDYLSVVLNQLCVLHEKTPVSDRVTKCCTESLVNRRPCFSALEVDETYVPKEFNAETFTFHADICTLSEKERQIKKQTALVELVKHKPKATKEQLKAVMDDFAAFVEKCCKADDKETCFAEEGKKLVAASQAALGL
T2 sequence (P02787 20-698): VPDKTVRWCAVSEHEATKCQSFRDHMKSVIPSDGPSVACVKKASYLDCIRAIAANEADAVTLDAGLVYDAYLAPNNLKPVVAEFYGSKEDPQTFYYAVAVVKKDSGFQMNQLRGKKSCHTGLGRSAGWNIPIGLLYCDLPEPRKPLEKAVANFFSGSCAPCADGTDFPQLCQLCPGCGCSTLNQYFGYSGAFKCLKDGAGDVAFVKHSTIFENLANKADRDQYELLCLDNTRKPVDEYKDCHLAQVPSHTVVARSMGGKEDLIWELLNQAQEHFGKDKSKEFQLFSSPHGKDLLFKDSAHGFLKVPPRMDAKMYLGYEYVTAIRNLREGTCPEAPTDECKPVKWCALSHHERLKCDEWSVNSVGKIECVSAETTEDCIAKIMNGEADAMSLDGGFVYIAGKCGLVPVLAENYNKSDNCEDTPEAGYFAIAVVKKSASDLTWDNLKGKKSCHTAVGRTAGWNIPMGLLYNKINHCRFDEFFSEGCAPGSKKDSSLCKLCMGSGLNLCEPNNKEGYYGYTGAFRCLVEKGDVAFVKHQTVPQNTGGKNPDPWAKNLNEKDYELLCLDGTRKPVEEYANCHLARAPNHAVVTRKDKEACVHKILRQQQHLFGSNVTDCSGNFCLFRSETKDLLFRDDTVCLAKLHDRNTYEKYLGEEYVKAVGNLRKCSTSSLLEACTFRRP

| Compound | Kb (DNA binding constant) [1] | IC50 [2] [µM] | Ka (association binding constant), HSA [3] | n (Hill Coefficient), HSA [3] | n (Number of Binding Sites), HSA [3] | Ksv (Stern-Volmer constant), HSA ([3]; 2.5 µM HSA) | Kq (bimolecular quenching constant), HSA [3] [M⁻¹ s⁻¹] | fa (fraction of fluorophore accessible to the quencher), HSA [3] | Ksv (Stern-Volmer quenching constant, EB-DNA system) (EB-DNA system (CT-DNA)) | K50 (EB Displacement Assay) (EB-DNA system (CT-DNA)) [µM] | IC50 [4] [µM] | IC50 [5] [µM] | Ka (association binding constant), apo-Tf (Apo-transferrin (apo-Tf)) | n (Hill Coefficient), apo-Tf (Apo-transferrin (apo-Tf)) | n (Number of Binding Sites), apo-Tf (Apo-transferrin (apo-Tf)) | Ksv (Stern-Volmer constant), apo-Tf (Apo-transferrin (apo-Tf); 1 µM apo-Tf) | Kq (bimolecular quenching constant), apo-Tf (Apo-transferrin (apo-Tf)) [M⁻¹ s⁻¹] | fa (fraction of fluorophore accessible to the quencher), apo-Tf (Apo-transferrin (apo-Tf)) | Kd (Apo-transferrin (apo-Tf)) [µM] | Kd [6] [µM] | also measured |
| --- | --- | --- | --- | --- | --- | --- | --- | --- | --- | --- | --- | --- | --- | --- | --- | --- | --- | --- | --- | --- | --- |
| CCn1cc(C(=O)[O][Eu]([OH])[O]C(=O)c2cn(CC)c3cc4c(cc3c2=O)OCO4)c(=O)c2cc3c(cc21)OCO3.O [Eu oxo, [Eu(oxo)(OH)(H2O)]] | 10.72 (± 2.47) × 10^5 L∙mol^−1 | 107 ± 16 | (4.75 ± 0.80) × 10^5 M^−1 | 1.33 ± 0.18 | 1.11 ± 0.01 | 11.25 (± 0.92) × 10^4 M^−1 | 1.125e+13 | 0.94 ± 0.04 | (1.26 ± 0.02) × 10^4 | 40.15 ± 11.82 | 73.7 ± 19.8 | > 200 | (2.74 ± 0.41) × 10^4 M^−1 | 0.95 ± 0.21 | 0.88 ± 0.01 | (16.55 ± 0.94) × 10^4 M^−1 | 1.655e+13 | 0.81 ± 0.02 | 8.27 ± 4.17 | 5.56 ± 0.86 | quenching effect on HSA fluorescence peak ([3]; 2.5 µM HSA, compound up to 8 µM, λex 280 nm): ~ 58%; Ksv (Stern-Volmer constant), HSA ([3]; 2.5 µM HSA, listed as Eu-oxo): (11.25 ± 0.92) × 10^4 M^−1; quenching effect on apo-Tf fluorescence peak (Apo-transferrin (apo-Tf); 1 µM apo-Tf, compound up to 8 µM, λex 295 nm): 50% |
| CCn1cc(C(=O)[O][La]([OH])[O]C(=O)c2cn(CC)c3cc4c(cc3c2=O)OCO4)c(=O)c2cc3c(cc21)OCO3.O [La oxo, [La(oxo)(OH)(H2O)]] | 2.57 (± 0.17) × 10^5 L∙mol^−1 | 52.1 ± 5.54 | (5.80 ± 2.01) × 10^5 M^−1 | 1.74 ± 0.21 | 1.14 ± 0.02 | (6.82 ± 0.74) × 10^4 M^−1 | 6.82e+12 | 1.26 ± 0.11 | 1.27 (±0.03) × 10^4 | 37.05 ± 8.86 | > 100 | > 200 | (0.53 ± 0.23) × 10^4 M^−1 | 1.71 ± 0.21 | 0.77 ± 0.03 | (14.13 ± 1.46) × 10^4 M^−1 | 1.413e+13 | 0.68 ± 0.03 | 8.89 ± 2.11 | 6.22 ± 1.05 | Ksv (Stern-Volmer quenching constant, EB-DNA system) (EB-DNA system (CT-DNA); listed as La-oxo): (1.27 ± 0.03) × 10^4 |
| CCn1cc(C(=O)[O][Sm]([OH])[O]C(=O)c2cn(CC)c3cc4c(cc3c2=O)OCO4)c(=O)c2cc3c(cc21)OCO3.O.O [Sm oxo, [Sm(oxo)(OH)(H2O)] · H2O] | 9.33 (± 1.46) × 10^4 L∙mol^−1 | 41.5 ± 15.3 | (4.28 ± 2.12) × 10^5 M^−1 | 1.55 ± 0.37 | 1.11 ± 0.04 | (6.56 ± 0.90) × 10^4 M^−1 | 6.56e+12 | 1.44 ± 0.15 | (1.21 ± 0.03) × 10^4 | 41.55 ± 19.32 | 40.4 ± 6.27 | > 200 | (4.16 ± 1.09) × 10^4 M^−1 | 2.03 ± 0.32 | 0.95 ± 0.02 | (9.34 ± 0.66) × 10^4 M^−1 | 9.34e+12 | 0.85 ± 0.05 | 5.73 ± 0.55 | 4.69 ± 0.87 | – |
